# Laboratory results reported in patent publication US12138322B2, “Method of preventing the development of melanoma” (Vector Vitale IP LLC, priority 2019, dated 2024).
# Marks after values point to notes of the source that are not given here.
# Tested on: B16 melanoma cells
# Experiment: Experimental model of hematogenous B16 melanoma metastasis (lungs), intravenous administration
# Type: in vivo, C57Bl mice
# Conditions: IV 60 μg/mouse; for Number of animals in the group with metastases / Number of metastases/mouse (M ± m) / Volume of metastases/mouse (M ± m): lungs at day 26
# Method: An experimental model of hematogenous metastasis was used in the experiment which allowed for the inoculation of B16 melanoma cells. The characteristic of these cells is given in Example 1. The cells were cultured in vitro under standard conditions. For transplantation, tumor cells were removed from the substrate with 0.02% Versene solution and the suspension cellularity and viability were evaluated in the presence of trypan blue in a hemocytometer and the suspension was adjusted to a concentration of […]. Melanoma cells were injected intracutaneously (IC) in 0.05 ml of suspension (0.5×10^6 cells/mouse) into the back area of the animal. Part of the coat on the back of mice was removed with a depilatory cream at 24 hours before tumor cell inoculation. Cells isolated from B16 mouse melanoma were used in the experiment. Cells were cultured in vitro under standard conditions. For inoculation, tumor cells were removed from the substrate with 0.02% Versene solution. The cellularity and viability of the obtained cell suspension were evaluated with a hemocytometer in presence of a trypan blue. Cell concentration was adjusted with saline to 1×10^6 cells/ml. Melanoma cells were injected IV in 0.2 ml of suspension (0.2×10^6 cells/mouse) into the lateral tail vein.
# ^64Zne(Asp)2 was dissolved in deuterium-depleted water. The composition was injected intravenously using a microinjection syringe at a dose of 60 μg of ^64Zne/mouse: two injections at a dose of 30 μg/mouse, each in a volume of 0.3 ml (0.6 ml in total), for 4 hours. The injections were given every other day for 10 days (5 injections in total). The first injection of the inventive composition was given 45 minutes or 24 hours after inoculation of tumor cells. At day 26 after IV injection of tumor cells the lungs were excised from all animals in each group and the number and volume of metastases were then determined. C57Bl mice (8 mice per group) at the age of 12-14 weeks, weighing 25-27 g were used in the experiment. The conditions in which animals were maintained are described in Example 1 above.
# The ^64Zne(Asp)2 composition was injected intravenously into the animal's lateral tail vein using a Micro-Fine Plus microinjection syringe (Becton Dickinson). The injection site was cleaned with 96% ethanol.
# The animals were divided into experimental groups as follows: • Group No. 1: control group, mice injected IV with B16 melanoma cells+IV injection of the solvent (deuterium-depleted water); • Group No. 2: mice injected IV with B16 melanoma cells+IV injection of ^64Zne(Asp)2 24 hours after the tumor cells were inoculated; • Group No. 3: mice injected IV with B16 melanoma cells+IV injection of ^64Zne(Asp)2 45 minutes after the tumor cells were inoculated
# On day 26 after IV injection of tumor cells the lungs were excised from all animals in each group and the number and volume of metastases were then determined.
# The volume of metastases was calculated using the following formula for the volume of a sphere:
# V= 4/3×πr^3, where V is the metastasis volume (mm^3); r is the metastasis radius (mm).
# [1] = first injection 45 min after tumor cells were inoculated
# [2] = first injection 24 hours after tumor cells were inoculated
structure (smiles),measurement,setting,value
"N[C@@H](CC(=O)[O-])C(=O)[O-].[Zn+2] [^64Zne(Asp)2, Zinc L-aspartate]",number and volume of metastases vs. control,45 min or 24 hours after inoculation,statistically significant decrease
same,Number of animals in the group with metastases,[1],75%
same,Number of metastases/mouse (M ± m),[1],4 ± 2
same,Volume of metastases/mouse (M ± m),[1],2.5 ± 1.7* mm^3
same,Number of animals in the group with metastases,[2],75%
same,Number of metastases/mouse (M ± m),[2],6.4 ± 2.5
same,Volume of metastases/mouse (M ± m),[2],3.3 ± 2* mm^3
